Measurements taken from patent publication US20040220148A1, “5-Membered ring heterocycles as inhibitors of leucocyte adhesion and as VLA-4 antagonists” (Aventis Pharma Deutschland GmbH, priority 1996, published 2004).
Counter-ions that a name gives are not always drawn.

What follows are molecules tested against T1, VLA-4 integrins on human U937 cells (interaction between VCAM-1 and VLA-4) (Homo sapiens, UniProt P05556+P13612) (assay: U937/VCAM-1 cell adhesion test (adhesion of U937 cells to hVCAM-1(1-3)-IgG)). Details: concentration leading to 50% inhibition of adhesion.
T1 construct: the VLA-4 integrins, are offered in their natural form as surface molecules on human U937 cells; host or cells: U937 cells (VLA-4, endogenous); the partner hVCAM-1(1-3)-IgG came from the supernatant of transfected COS cells (ATCC CRL1651)
T1 sequence (P13612 34-1032): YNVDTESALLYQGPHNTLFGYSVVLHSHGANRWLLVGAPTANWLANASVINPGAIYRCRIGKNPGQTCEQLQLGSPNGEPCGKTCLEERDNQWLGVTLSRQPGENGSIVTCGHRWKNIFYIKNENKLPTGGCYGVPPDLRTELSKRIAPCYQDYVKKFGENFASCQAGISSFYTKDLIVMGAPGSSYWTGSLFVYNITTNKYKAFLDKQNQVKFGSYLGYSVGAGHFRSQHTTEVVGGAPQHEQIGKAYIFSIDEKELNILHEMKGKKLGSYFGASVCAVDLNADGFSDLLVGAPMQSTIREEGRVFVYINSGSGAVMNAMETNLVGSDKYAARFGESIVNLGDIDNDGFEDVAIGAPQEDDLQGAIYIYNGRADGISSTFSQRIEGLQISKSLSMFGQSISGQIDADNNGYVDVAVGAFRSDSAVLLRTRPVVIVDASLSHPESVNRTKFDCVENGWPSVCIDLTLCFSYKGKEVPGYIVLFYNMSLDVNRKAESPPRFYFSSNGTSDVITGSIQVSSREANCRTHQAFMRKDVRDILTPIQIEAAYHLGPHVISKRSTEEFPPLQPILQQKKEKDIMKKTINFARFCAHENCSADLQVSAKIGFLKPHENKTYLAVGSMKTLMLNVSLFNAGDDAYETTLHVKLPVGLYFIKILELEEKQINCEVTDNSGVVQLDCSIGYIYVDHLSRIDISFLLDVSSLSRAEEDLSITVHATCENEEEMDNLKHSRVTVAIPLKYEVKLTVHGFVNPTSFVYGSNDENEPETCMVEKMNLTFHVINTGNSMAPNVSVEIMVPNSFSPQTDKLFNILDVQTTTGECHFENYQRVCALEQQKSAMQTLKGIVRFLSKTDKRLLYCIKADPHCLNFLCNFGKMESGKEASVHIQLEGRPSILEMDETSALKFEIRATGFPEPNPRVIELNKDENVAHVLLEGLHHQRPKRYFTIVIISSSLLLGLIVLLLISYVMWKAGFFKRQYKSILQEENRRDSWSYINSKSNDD
T1 sequence (P05556 21-798): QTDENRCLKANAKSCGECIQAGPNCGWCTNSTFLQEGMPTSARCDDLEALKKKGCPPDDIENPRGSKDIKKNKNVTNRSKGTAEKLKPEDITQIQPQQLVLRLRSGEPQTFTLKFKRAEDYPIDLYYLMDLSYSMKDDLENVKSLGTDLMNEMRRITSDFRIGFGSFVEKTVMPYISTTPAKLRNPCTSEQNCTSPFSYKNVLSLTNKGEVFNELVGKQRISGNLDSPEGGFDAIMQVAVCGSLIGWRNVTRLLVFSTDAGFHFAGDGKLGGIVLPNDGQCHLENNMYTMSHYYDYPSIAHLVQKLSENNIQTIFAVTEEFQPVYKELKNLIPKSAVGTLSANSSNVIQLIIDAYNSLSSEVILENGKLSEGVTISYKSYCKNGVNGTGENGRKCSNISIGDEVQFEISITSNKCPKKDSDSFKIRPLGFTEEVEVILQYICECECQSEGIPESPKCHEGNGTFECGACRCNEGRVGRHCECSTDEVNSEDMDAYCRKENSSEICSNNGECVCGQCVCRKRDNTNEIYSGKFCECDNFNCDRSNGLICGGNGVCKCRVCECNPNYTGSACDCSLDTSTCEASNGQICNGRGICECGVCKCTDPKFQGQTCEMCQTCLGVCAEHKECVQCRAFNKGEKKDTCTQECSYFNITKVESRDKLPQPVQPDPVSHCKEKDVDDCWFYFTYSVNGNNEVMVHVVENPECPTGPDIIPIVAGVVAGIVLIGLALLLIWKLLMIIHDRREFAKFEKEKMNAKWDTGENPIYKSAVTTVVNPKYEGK
Type: cell-based
Source text: As a test method for the activity of the compounds of the formula I on the interaction between VCAM-1 and VLA-4, an assay which is specific for this interaction is used. The cellular binding components, i.e. the VLA-4 integrins, are offered in their natural form as surface molecules on human U937 cells (ATCC CRL 1593) which belong to the group of leucocytes. As specific binding components, recombinant soluble fusion proteins prepared by genetic engineering and consisting of the extracytoplasmic domains of human VCAM-1 and the constant region of a human immunoglobulin of the subclass IgG1 are used.
Assay for the Measurement of the Adhesion of U937 Cells (ATCC CRL 1593) to hVCAM-1 (1-3)-IgG
1. Preparation of Human VCAM-1(1-3)-IgG and Human CD4-IgG
A genetic construct for the expression of the extracellular domains of human VCAM-1 was employed, associated with the genetic sequence of the heavy chain of human immunoglobulin IgG1 (hinge, CH2 and CH3 regions), from Dr. Brian Seed, Massachusetts General Hospital, Boston, USA. The soluble fusion protein hVCAM-1(1-3)-IgG contained the three amino-terminal extracellular immunoglobulin-like domains of human VCAM-1 (Damle and Aruffo, Proc. Natl. Acad. Sci. USA 1991, 88, 6403). CD4-IgG (Zettlmeissl et al, DNA and Cell Biology 1990, 9, 347) served as a fusion protein for negative controls. The recombinant proteins were expressed as soluble proteins after DEAE/dextran-mediated DNA-transfection in COS cells (ATCC CRL1651) according to standard procedures (Ausubel et al., Current protocols in molecular biology, John Wiley & Sons, Inc., 1994).
2. Assay for Measurement of the Adhesion of U937 Cells to hVCAM-1(1-3)-IgG
2.1 96-well microtiter test plates (Nunc Maxisorb) were incubated at room temperature for 1 hour with 100 μl/well of a goat-anti-human IgG antibody solution (10 μg/ml in 50 mM tris, pH 9.5). After removing the antibody solution, washing was carried out once with PBS.
2.2 150 μl/well of a blocking buffer (1% BSA in PBS) were incubated on the plates at room temperature for 0.5 hours. After removing the blocking buffer, washing was carried out once with PBS.
2.3 100 μl per well of a cell culture supernatant of transfected COS cells were incubated on the plates at room temperature for 1.5 hours. The COS cells were transfected with a plasmid which codes for the three N-terminal immunoglobulin-like domains of VCAM-1, coupled to the Fc part of human IgG1 (hVCAM-1(1-3)-IgG). The content of hVCAM-1 (1-3)-IgG was about […]. After removing the culture supernatant, washing was carried out once with PBS.
2.4 The plates were incubated at room temperature for 20 minutes with […] of Fc receptor blocking buffer (1 mg/ml of γ-globulin, 100 mM NaCl, 100 μM MgCl2, 100 μM MnCl2, 100 μM CaCl2, 1 mg/ml BSA in 50 mM HEPES, pH 7.5). After removing the Fc receptor blocking buffer, washing was carried out once with PBS.
2.5 20 μl of binding buffer (100 mM NaCl, 100 μM MgCl2, 100 μM MgCl2, 100 μM CaCl2, 1 mg/ml BSA in 50 mM HEPES, pH 7.5), were initially introduced, the substances to be tested were added in 10 μl of binding buffer and the mixture was incubated for 20 minutes. As controls, antibodies against VCAM-1 (BBT, No. BBA6) and against VLA-4
(Immunotech, No. 0764) were used.
2.6 U937 cells were incubated in Fc receptor blocking buffer for 20 minutes and then pipetted in at a concentration of 1×10^6/ml and in an amount of 100 μl per well ([…]).
2.7 The plates were slowly immersed at an angle of 45° in stop buffer (100 mM NaCl, 100 μM MgCl2, 100 μM MnCl2, 100 μM CaCl2 in 25 mM Tris, pH 7.5) and shaken off. The process was repeated.
2.8 50 μl/well of a dye solution (16.7 μg/ml of Hoechst dye 33258, 4% formaldehyde, 0.5% Triton X-100 in PBS) were then incubated on the plates for 15 minutes.
2.9 The plates were shaken off and slowly immersed at an angle of 45° in stop buffer (100 mM NaCl, 100 μM MgCl2, 100 μM MnCl2, 100 μM CaCl2 in 25 mM Tris, pH 7.5). The process was repeated. […]

SMILES	IC50 [µM]
CC1(c2ccc(C(=N)N)cc2)C(=O)N(CC(=O)NC(CC(=O)O)c2ccccc2)C(=O)N1Cc1ccccc1 [Example 33, (R,S)-3-(((R,S)-4-(4-(Amino-imino-methyl)phenyl)-3-benzyl-4-methyl-2,5-dioxoimidazolidin-1-yl)acetylamino)-3-phenylpropionic acid hydrochloride]	45
CCN1C(=O)N(CC(=O)N[C@@H](CC(=O)O)C(=O)N[C@H](C(=O)O)c2ccccc2)C(=O)[C@@H]1CCCN [Example 35, ((S)-4-(3-Aminopropyl)-3-ethyl-2,5-dioxoimidazolidin-1-yl)acetyl-L-aspartyl-L-phenylglycine]	250
CCN1C(=O)N(CC(=O)N[C@@H](CC(=O)O)C(=O)N[C@@H](C(=O)O)c2ccccc2)C(=O)[C@@H]1CCCNC(=N)N [Example 36, ((S)-4-(3-Guanidinopropyl)-3-ethyl-2,5-dioxoimidazolidin-1-yl)acetyl-L-aspartyl-D-phenylglycine]	250
NCCC[C@H]1C(=O)N(CC(=O)N[C@@H](CC(=O)O)C(=O)N[C@H](C(=O)O)c2ccccc2)C(=O)N1Cc1ccccc1 [Example 37, ((S)-4-(3-Aminopropyl)-3-benzyl-2,5-dioxoimidazolidin-1-yl)acetyl-L-aspartyl-L-phenylglycine]	200
N=C(N)NCCC[C@H]1C(=O)N(CC(=O)N[C@@H](CC(=O)O)C(=O)N[C@H](C(=O)O)c2ccccc2)C(=O)N1Cc1ccccc1 [Example 38, ((S)-4-(3-Guanidinopropyl)-3-benzyl-2,5-dioxoimidazolidin-1-yl)acetyl-L-aspartyl-L-phenylglycine]	45
CC1(c2ccc(C(=N)N)cc2)C(=O)N(CC(=O)NC[C@H](NC(=O)OCc2ccccc2)C(=O)O)C(=O)N1Cc1ccccc1 (stereo partly drawn) [Example 46, (S)-3-(((R,S)-4-(4-(Amino-imino-methyl)phenyl)-3-benzyl-4-methyl-2,5-dioxoimidazolidin-1-yl)acetylamino)-2-benzyloxycarbonylaminopropionic acid]	6.8
COc1ccc(C(CC(=O)O)NC(=O)CN2C(=O)N(Cc3ccccc3)C(C)(c3ccc(C(=N)N)cc3)C2=O)cc1OC [Example 57, (R,S)-3-(((R,S)-4-(4-(Amino-imino-methyl)phenyl)-3-benzyl-methyl-2,5-dioxoimidazolidin-1-yl)acetylamino)-3-(3,4-dimethoxyphenyl)propionic acid]	17.5
CC1(c2ccc(C(=N)N)cc2)C(=O)N(CC(=O)NC(CC(=O)O)c2ccc3c(c2)OCCO3)C(=O)N1Cc1ccccc1 [Example 58, (R,S)-3-(((R,S)-4-(4(Amino-imino-methyl)phenyl)-3-benzyl-4-methyl-2,5-dioxoimidazolidin-1-yl)acetylamino)-3-(3,4-ethylenedioxyphenyl)propionic acid]	25
COc1cc(OC)cc(C(CC(=O)O)NC(=O)CN2C(=O)N(Cc3ccccc3)C(C)(c3ccc(C(=N)N)cc3)C2=O)c1 [Example 59, (R,S)-3-(((R,S)-4-(4-(Amino-imino-methyl)phenyl)-3-benzyl-4-methyl-2,5-dioxoimidazolidin-1-yl)acetylamino)-3-(3,5-dimethoxyphenyl)propionic acid]	27.5
CC1(c2ccc(C(=N)N)cc2)C(=O)N(CC(=O)NC[C@H](NC(=O)OCc2ccc(C(F)(F)F)cc2)C(=O)O)C(=O)N1Cc1ccccc1 (some centres unmarked) [Example 67]	2.25
CC1(c2ccc(CNC(=N)N)cc2)C(=O)N(CC(=O)N[C@@H](CC(=O)O)C(=O)N[C@H](C(=O)O)c2ccccc2)C(=O)N1Cc1ccccc1 (stereo partly drawn) [Example 69, ((R,S)-4-(4-Guanidinomethylphenyl)-3-benzyl-4-methyl-2,5-dioxo-imidazolidin-1-yl)acetyl-L-aspartyl-L-phenylglycine]	4.5
CC1(c2ccc(N)cc2)C(=O)N(CC(=O)N[C@@H](CC(=O)O)C(=O)N[C@H](C(=O)O)c2ccccc2)C(=O)N1Cc1ccccc1 (stereo partly drawn) [Example 70, ((R,S)-4-(4-Aminophenyl)-3-benzyl-4-methyl-2,5-dioxoimidazolidin-1-yl)acetyl-L-aspartyl-L-phenylglycine]	3
CC1(c2ccc(NC(=N)N)cc2)C(=O)N(CC(=O)N[C@@H](CC(=O)O)C(=O)N[C@H](C(=O)O)c2ccccc2)C(=O)N1Cc1ccccc1 (stereo partly drawn) [Example 71, ((R,S)-4-(4-Guanidinophenyl)-3-benzyl-4-methyl-2,5-dioxoimidazolidin-1-yl)acetyl-Laspartyl-L-phenylglycine]	3.25

Stronger by IC50, values ahead:

IC50 [µM]	SMILES
2	N=C(N)c1ccc(C2(Cc3ccccc3)C(=O)N(CC(=O)N[C@@H](CC(=O)O)C(=O)N[C@H](C(=O)O)c3ccccc3)C(=O)N2Cc2ccccc2)cc1 (stereo partly drawn) [Example 20, ((R,S)-4-(4-(Amino-imino-methyl)phenyl)-3,4-dibenzyl-2,5-dioxo-imidazolidin-1-yl)acetyl-L-aspartyl-L-phenylglycine]
1.1	CC1(c2ccc(C(=N)N)cc2)C(=O)N(CC(=O)N[C@@H](CC(=O)O)C(=O)N[C@H](C(=O)O)c2ccccc2)C(=O)N1Cc1ccccc1 (stereo partly drawn) [Example 4, ((R,S)-4-(4-(Amino-imino-methyl)phenyl)-3-benzyl-4-methyl-2,5-dioxoimidazolidin-1-yl)acetyl-L-aspartyl-L-phenylglycine]
0.5	C[C@@]1(c2ccc(C(=N)N)cc2)C(=O)N(CC(=O)N[C@@H](CC(=O)O)C(=O)N[C@H](C(=O)O)c2ccccc2)C(=O)N1Cc1ccc2ccccc2c1 [Example 9, ((R,S)-4-(4-(Amino-imino-methyl)phenyl)-3-((2-naphthyl)methyl)-4-methyl-2,5-dioxoimidazolidin-1-yl)acetyl-L-aspartyl-L-phenylglycine]
0.37	CC(C(=O)N[C@@H](CC(=O)O)C(=O)N[C@H](C(=O)O)c1ccccc1)N1C(=O)N(Cc2ccccc2)C(C)(c2ccc(C(=N)N)cc2)C1=O (stereo partly drawn) [Example 62, ((R,S)-2-((R,S)-4-(4-(Amino-imino-methyl)phenyl)-3-benzyl-4-methyl-2,5-dioxoimidazolidin-1-yl)-2-methylacetyl)-L-aspartyl-L-phenylglycine]
0.28	C[C@]1(c2ccc(C(=N)N)cc2)C(=O)N(CC(=O)N[C@@H](CC(=O)O)C(=O)N[C@H](C(=O)O)c2ccccc2)C(=O)N1Cc1ccc2ccccc2c1 [Example 41, ((S)-4-(4-(Amino-imino-methyl)phenyl)-3-((2-naphthyl)methyl)-4-methyl-2,5-dioxoimidazolidin-1-yl)acetyl-L-aspartyl-L-phenylglycine]
0.22	C[C@]1(c2ccc(C(=N)N)cc2)C(=O)N(CC(=O)N[C@@H](CC(=O)O)C(=O)N[C@H](C(=O)O)c2ccccc2)C(=O)N1Cc1ccccc1 [Example 63]
0.09	CN(C(=O)CN1C(=O)N(Cc2ccc(-c3ccccc3)cc2)C(C)(c2ccc(C(=N)N)cc2)C1=O)[C@@H](CC(=O)O)C(=O)N[C@H](C(=O)O)c1ccccc1 (stereo partly drawn) [Example 18, ((R,S)-4-(4-(Amino-imino-methyl)phenyl)-3-((4-biphenylyl)methyl)-4-methyl-2,5-dioxoimidazolidin-1-yl)acetyl-L-N-methyl-aspartyl-L-phenylglycine]
